Assay results: patent US6375926B1, “Labelled elastase inhibitors” (Amersham International PLC, priority 1996, dated 2002)

Tests used:
[1] = system: E. coli infected rats (experimental abscess); assay: In vivo biodistribution in rats bearing experimental abscesses, direct intravenous injection; parameters: species or system male Wistar rats; conditions: directly injected i.v.; for Relative conc. In infected area: % injected dose in a % body weight; for Infected/normal: ratio of % id/g infected area to contralateral thigh; for Infected/blood: ratio of %/g infected area to blood
Experimental: (§1) The model: into the right gracilis (thigh) muscle of male Wistar rats (250-325 g) were injected 1 ml/kg of an E. coli suspension containing >> 5×10^8/ml organisms.
(§2) Validation: the model was validated for use in the development of diagnostic imaging agents of infection/inflammation by the intravenous injection of ^99mTc-HMPAO ex-vivo labelled human wbc or ^67Ga-citrate when the abscesses were 24 hours old. Animals were dissected between 4 and 24 hours after injection. ^99mTc-labelled red blood cells were used as a negative control.
The animals were sacrificed at either 4 or 24 hours post injection and relevant tissues dissected.

[2] = biological target: T1, HLE (human leucocyte elastase) (Homo sapiens, UniProt P08246); assay: Measurement of HLE inhibition potency (kinact/Ki); format: biochemical
T1 sequence (P08246 30-267): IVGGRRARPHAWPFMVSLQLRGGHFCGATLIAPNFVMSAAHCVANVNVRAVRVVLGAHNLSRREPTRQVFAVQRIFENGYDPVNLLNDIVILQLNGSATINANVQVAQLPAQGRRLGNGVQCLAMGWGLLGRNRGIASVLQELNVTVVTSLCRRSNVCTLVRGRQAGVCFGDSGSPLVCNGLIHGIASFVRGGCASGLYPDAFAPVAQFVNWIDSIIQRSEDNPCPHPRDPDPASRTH
Experimental: Inhibitor potency against HLE is described by the parameter kinact/Ki as previously reported [Knight et al., Biochem., 8160-8170, (1992)]. Lyophilised enzyme was reconstituted with TrisHCl buffer, 100 mM, 0.5M NaCl at 0.05 units/ml (approximately nanomolar concentration) in a final reaction volume of 1 ml to which was added methoxysucc-ala-ala-pro-val-pNA substrate (1 mM) and the elastase inhibitor dissolved in DMSO. The reaction was monitored by detecting the change of absorbance at 410 nm (hydrolysis of the substrate releasing p-nitroaniline) over a timescale of 25 minutes. Values of kinact/Ki were estimated according to the Knight et al method.

[3] = system: E. coli infected rats (experimental abscess); assay: In vivo biodistribution of ex vivo labelled human leucocytes in E. coli infected rats; parameters: species or system male Wistar rats; conditions: ex vivo labelled human leucocytes injected i.v.
Experimental: as §1, §2
Screening of Ex vivo labelled human leucocytes in E. coli infected rats: A mixed population of human leucocytes was incubated with elastase inhibitor for 30 minutes at 37° C. The cells were then spun down and resuspended in a known volume of rat plasma for intravenous injection into rats bearing a 24 hour old abscess. Animals were dissected at 4 and 24 hours post injection.

[4] = In vivo stability of iodinated HLE inhibitors (thyroid uptake); parameters: species or system male Wistar rats; conditions: i.v. injection
Experimental: The in vivo stability of radioiodinated HLE inhibitors was monitored by determination of the percentage uptake in the thyroid as a function of time after administration. Thus radioiodinated compounds and ^123I free iodide were injected into male Wistar rats. The percentage of injected dose distributing to the thyroid was calculated by dissection at 4 and 24 hours post injection and counting.

[5] = system: mixed human red/white cells (granulocytes, monocytes + lymphocytes, erythrocytes); assay: In vitro cell uptake in mixed human red/white cells; format: cell-based; conditions: radiolabelled compound
Experimental: The radioactive compound was also incubated with an isolated leucocyte preparation to which an erythrocyte fraction had been added back. The packed erythrocytes obtained after blood sedimentation were washed twice with HBSS and then resuspended in their original blood volume with HBSS. Leucocytes obtained from 30 ml blood were resuspended in 0.5 ml erythrocyte suspension and 0.5 ml CFP. The cell suspension was then incubated with compound as above. Analysis of the distribution of activity in the cell pellet in the presence of red blood cells was carried out using Ficoll-Hypaque discontinuous density gradients (densities 1.04, 1.077 and 1.119 g/ml Histopaque steps).

[6] = system: isolated human white cells (granulocytes; monocytes + lymphocytes); assay: In vitro cell uptake in isolated human white cells; format: cell-based
Experimental: Fresh blood (30-120 ml) was anticoagulated with 1.5% ACD solution and sedimented by addition of 2 ml Hespan per 10 ml blood for 90 minutes at room temperature. The leucocyte rich platelet rich plasma supernatant was removed and centrifuged at 150 g for 5 minutes, yielding a leucocyte rich pellet and platelet rich plasma (PRP). The PRP was centrifuged at 4000 g to pellet the platelets leaving a cell free plasma (CFP). The leucocyte pellet was resuspended in a 50:50 mixture of HBSS and CFP and incubated with the radioactive compound for 30 minutes at 37° C. Free radioactive material was then removed from the cells by addition of an excess of HBSS:CFP and centrifugation of the leucocytes at 150 g for 7 minutes. The supernatant and cell pellet were taken for radioactive counting for calculation of percentage cell uptake. The distribution of radioactivity within the cell pellet was assessed by separation of the cell types using Percoll density gradient centrifugation (38%, 55% and 73% Percoll in HBSS step gradients). The residual plasma and free activity was recovered from the top of the gradient, the mononuclear cells (lymphocytes and monocytes) from the interface between 38% and 55%, and the granulocytes were recovered from the interface between 55% and 73% Percoll.

[7] = system: human whole blood (granulocytes, monocytes + lymphocytes, erythrocytes); assay: In vitro cell uptake in human whole blood; format: cell-based; conditions: 37° C. for 1 hour, radiolabelled compound
Experimental: The radioactive compound was added to 1 ml whole blood anticoagulated with ACD and incubated at 37° C. for 1 hour. The blood was diluted with HBSS and the cellular component separated by centrifugation. Distribution of activity within the cellular pellet was assessed by separation of cell fractions on Ficoll-Hypaque gradients as above.

[8] = system: E. coli infected rats (experimental abscess); assay: In vivo biodistribution in rats bearing experimental abscesses, direct intravenous injection; parameters: species or system male Wistar rats; conditions: 48 hrs
[9] = isolated human white cells, 30 minutes at 37° C., radiolabelled compound

In the case of CCC[C@@H](NC(=O)N1C(=O)C(CC)(CC)[C@@H]1Oc1ccc(C(=O)N2CCN(C)CC2)cc1)c1ccc(I)cc1 [Compound 24, 4S-[4-[[(4-methyl)piperazin-1-yl]carbonyl]phenoxy]-1-[(R-α-n-propyl)-(4-iodo)benzylaminocarbonyl]-3,3-diethyl-2-azetidinone], the “Relative conc. In infected area” value ([1]; 4 hrs post injection) is reported as 0.38, the Infected/normal ([1]; 4 hrs post injection) is reported as 1.3 and the Infected/blood ([1]; 4 hrs post injection) is reported as 1.3. The “Relative conc. In infected area” value ([1]; 24 hrs post injection) was 0.16, the Infected/normal ([1]; 24 hrs post injection) was 1.1 and the Infected/blood ([1]; 24 hrs post injection) was 0.9. For the same compound, the “kinact/Ki (human elastase)” value ([2]; as listed in Table 24 beside the radiolabelled compounds) was 2830000, the Potency (1/(M·s)), kinact/Ki ([2]; measured for non-radioactive iodine-labelled compounds and unlabelled chelate conjugates) was 2.83e+06 M⁻¹ s⁻¹ and the Infected/blood ([3]; 4 hrs post injection) was 0.9. The Infected/normal ([3]; 4 hrs post injection) was 1.3, the “Relative conc. In infected area” value ([3]; 4 hrs post injection) was 0.53 and the Infected/blood ([3]; 24 hrs post injection) was 0.9. The Infected/normal ([3]; 24 hrs post injection) was 1.3, the “Relative conc. In infected area” value ([3]; 24 hrs post injection) was 0.20 and the “% dose in Thyroid” value ([4]; 4 hours) was 0.2 % dose. The “% dose in Thyroid” value ([4]; 24 hours) was 0.6 % dose, the “% uptake in Eryth. (erythrocytes), WHITE AND RED CELLS” value [5] was 41.7% and the “% uptake in Gran. (granulocytes), WHITE AND RED CELLS” value [5] was 40.4%. For the same compound, the “% uptake in Mon. (monocytes + lymphocytes), WHITE AND RED CELLS” value [5] was 4.0%, the “selectivity for granulocytes over a mixture of monocytes/lymphocytes” value ([6]; approximately equivalent numbers of monocytes/lymphocytes and granulocytes present) was “some degree of selectivity for granulocytes” and the “% uptake in Gran. (granulocytes), WHITE CELLS” value [6, 9] was 83.2%. For the same compound, the “% uptake in Mon. (monocytes + lymphocytes), WHITE CELLS” value [6, 9] was 3.4%, the “% uptake in Eryth. (erythrocytes), WHOLE BLOOD” value [7] was 16.6% and the “% uptake in Gran. (granulocytes), WHOLE BLOOD” value [7] was 24.3%. For the same compound, the “% uptake in Mon. (monocytes + lymphocytes), WHOLE BLOOD” value [7] was 13.6%.

For O=C([O-])CC(O)(CC(=O)[O-])C(=O)[O-].[67Ga+3] [^67Ga-citrate, ^67Ga citrate, reference compound], the “Relative conc. In infected area” value ([1]; 24 hrs post injection) was 0.9, the Infected/normal ([1]; 24 hrs post injection) was 2.2 and the Infected/blood ([1]; 24 hrs post injection) was 3.9. For the same compound, the Infected/blood [8] was 9.7, the Infected/normal [8] was 3.9 and the “Relative conc. In infected area” value [8] was 1.1.
